In patent US11970498B2, “CDK2 inhibitors” (BLUEPRINT MEDICINES CORPORATION, priority 2021, dated 2024):
pIC50: −log10 of the molar value.

How the values were obtained:
CDK1/Cyclin B1, GST-tag = target: T1, CDK1/Cyclin B1, GST-tag (Homo sapiens, UniProt P06493); test: CDK1/Cyclin B1 biochemical phosphorylation assay (Caliper mobility shift); conditions: apparent IC50; 1.0 mM ATP or ATP Km; 1.5 nM enzyme; 25° C.
T1 construct: GST
In short: (§1)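 Caliper electrophoretic separation of substrate and phosphopeptide gave apparent IC50s. Enzymes: CDK1/Cyclin B1 GST-tag 1.5 nM, CDK2/Cyclin E 1.25 nM; ATP 1.0 mM or at Km; 7.5 µM FL-peptide; pH 7.5 HEPES buffer, 1% DMSO; room temperature until 10–20% phosphorylated, then EDTA quench.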

CDK2/Cyclin E = CDK2/Cyclin E (Homo sapiens, UniProt P24941); test: CDK2/Cyclin E biochemical phosphorylation assay (Caliper mobility shift); conditions: apparent IC50; 1.0 mM ATP or ATP Km; 1.25 nM enzyme; 25° C.; read-out: CDK2/cyclin E1 IC50
In short: as §1

T1 sequence (P06493 whole entry): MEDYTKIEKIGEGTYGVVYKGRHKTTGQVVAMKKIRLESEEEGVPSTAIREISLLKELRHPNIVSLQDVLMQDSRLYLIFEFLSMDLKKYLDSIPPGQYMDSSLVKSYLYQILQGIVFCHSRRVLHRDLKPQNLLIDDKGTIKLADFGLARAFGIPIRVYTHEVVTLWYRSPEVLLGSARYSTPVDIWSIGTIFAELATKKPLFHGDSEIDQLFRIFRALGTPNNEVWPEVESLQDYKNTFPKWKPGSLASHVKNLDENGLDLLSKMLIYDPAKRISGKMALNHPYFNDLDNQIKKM
T1 sequence (P14635 whole entry partner): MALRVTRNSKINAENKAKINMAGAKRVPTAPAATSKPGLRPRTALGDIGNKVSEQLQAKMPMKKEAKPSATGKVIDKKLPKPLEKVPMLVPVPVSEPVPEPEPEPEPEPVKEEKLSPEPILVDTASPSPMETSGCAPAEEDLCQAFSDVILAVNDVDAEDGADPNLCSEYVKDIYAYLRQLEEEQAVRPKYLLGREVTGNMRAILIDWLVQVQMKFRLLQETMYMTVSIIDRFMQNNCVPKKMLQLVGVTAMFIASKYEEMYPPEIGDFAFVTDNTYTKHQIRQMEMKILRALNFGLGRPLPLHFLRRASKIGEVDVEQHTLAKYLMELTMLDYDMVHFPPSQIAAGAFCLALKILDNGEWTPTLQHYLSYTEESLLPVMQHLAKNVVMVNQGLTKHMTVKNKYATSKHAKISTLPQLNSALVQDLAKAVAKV

pIC50 (CDK1/Cyclin B1, GST-tag)	pIC50 (CDK2/Cyclin E)	SMILES
≤ 6.30	≥ 8.00	C[C@@H](c1ccc(F)cc1)n1ncc2ncc(Nc3cc(OC(F)F)[nH]n3)nc21 [Example 47, (S)-N-(5-(difluoromethoxy)-1H-pyrazol-3-yl)-1-(1-(4-fluorophenyl)ethyl)-1H-pyrazolo[3,4-b]pyrazin-6-amine]
6.30 to 7.00	≥ 8.00	C[C@@H](C1CCOCC1)n1nc(F)c2ncc(Nc3cc(OC(F)F)[nH]n3)nc21 [Example 124, (S)-N-(5-(difluoromethoxy)-1H-pyrazol-3-yl)-3-fluoro-1-(1-(tetrahydro-2H-pyran-4-yl)ethyl)-1H-pyrazolo[3,4-b]pyrazin-6-amine]
≤ 6.30	7.52 to 7.70	Fc1ccccc1Cn1ncc2ncc(Nc3cc(OC(F)F)[nH]n3)nc21 [Example 37, N-(5-(difluoromethoxy)-1H-pyrazol-3-yl)-1-(2-fluorobenzyl)-1H-pyrazolo[3,4-b]pyrazin-6-amine]
≤ 6.30	7.52 to 7.70	OC[C@@H](C1CCOCC1)n1ncc2ncc(Nc3cc(OC(F)F)[nH]n3)nc21 [Example 30, (R)-2-(6-((5-(difluoromethoxy)-1H-pyrazol-3-yl)amino)-1H-pyrazolo[3,4-b]pyrazin-1-yl)-2-(tetrahydro-2H-pyran-4-yl)ethan-1-ol]
≤ 6.30	7.00 to 7.52	O[C@@H]1C[C@H]1Cn1ncc2ncc(Nc3cc(OC(F)F)[nH]n3)nc21 (single isomer, unassigned) [Example 179, (1R,2S)-2-((6-((5-(difluoromethoxy)-1H-pyrazol-3-yl)amino)-1H-pyrazolo[3,4-b]pyrazin-1-yl)methyl)cyclopropan-1-ol or (1S,2R)-2-((6-((5-(difluoromethoxy)-1H-pyrazol-3-yl)amino)-1H-pyrazolo[3,4-b]pyrazin-1-yl)methyl)cyclopropan-1-ol]
≤ 6.30	≥ 8.00	C[C@@H](c1ccc(F)cn1)n1ncc2ncc(Nc3cc(OC(F)F)[nH]n3)nc21 [Example 48, (S)-N-(5-(difluoromethoxy)-1H-pyrazol-3-yl)-1-(1-(5-fluoropyridin-2-yl)ethyl)-1H-pyrazolo[3,4-b]pyrazin-6-amine]
≤ 6.30	7.52 to 7.70	FC(F)Oc1cc(Nc2cnc3cnn(C[C@H]4CCCNC4)c3n2)n[nH]1 [Example 200, (S)—N-(5-(difluoromethoxy)-1H-pyrazol-3-yl)-1-(piperidin-3-ylmethyl)-1H-pyrazolo[3,4-b]pyrazin-6-amine]
6.30 to 7.00	≥ 8.00	C[C@@H](O)c1nn(CC2CCOCC2)c2nc(Nc3cc(OC(F)F)[nH]n3)cnc12 (single isomer, unassigned) [Example 176, (S)-1-(6-((5-(difluoromethoxy)-1H-pyrazol-3-yl)amino)-1-((tetrahydro-2H-pyran-4-yl)methyl)-1H-pyrazolo[3,4-b]pyrazin-3-yl)ethan-1-ol or (R)-1-(6-((5-(difluoromethoxy)-1H-pyrazol-3-yl)amino)-1-((tetrahydro-2H-pyran-4-yl)methyl)-1H-pyrazolo[3,4-b]pyrazin-3-yl)ethan-1-ol]

SMILES	pIC50 (CDK1/Cyclin B1, GST-tag)	pIC50 (CDK2/Cyclin E)
O=C1C[C@H](Cn2ncc3ncc(Nc4cc(OC(F)F)[nH]n4)nc32)CN1 (single isomer, unassigned) [Example 20, (S)-4-((6-((5-(difluoromethoxy)-1H-pyrazol-3-yl)amino)-1H-pyrazolo[3,4-b]pyrazin-1-yl)methyl)pyrrolidin-2-one or (R)-4-((6-((5-(difluoromethoxy)-1H-pyrazol-3-yl)amino)-1H-pyrazolo[3,4-b]pyrazin-1-yl)methyl)pyrrolidin-2-one]	≤ 6.30	≥ 8.00
FC[C@H](c1cccnc1)n1ncc2ncc(Nc3cc(OC(F)F)[nH]n3)nc21 (single isomer, unassigned) [Example 18, (S)—N-(5-(difluoromethoxy)-1H-pyrazol-3-yl)-1-(2-fluoro-1-(pyridin-3-yl)ethyl)-1H-pyrazolo[3,4-b]pyrazin-6-amine or (R)—N-(5-(difluoromethoxy)-1H-pyrazol-3-yl)-1-(2-fluoro-1-(pyridin-3-yl)ethyl)-1H-pyrazolo[3,4-b]pyrazin-6-amine]	≤ 6.30	7.52 to 7.70
